Assay results from patent US20240041959A1, “NOVEL MODIFIED REOVIRUS AND USE THEREOF” (priority 2020, published 2024).

Key:
[1] = system: paclitaxel-resistant cancer cell lines Skmel28, A375, and B16F10; test: WST cell viability in paclitaxel-resistant cancer cell lines (Example 3); assay type: cell-based; conditions: even at high concentrations of 100 nM or more, FIG. 1B
Experimental: The cell lines used in this example are as follows: normal cell line HS27, and paclitaxel-resistant cancer cell lines Skmel28, A375, and B16F10. Each cell line was cultured in DMEM medium containing 10% fetal bovine serum and seeded at a density of 3,000 cells/well in a 96-well plate, followed by incubation at 37° C. and 5% CO2 for 24 hours. […] The number of surviving cells was measured using a WST kit (DoGen, Seoul, South Korea, Cat No: EZ-3000) according to the manufacturer's instructions.

normal cell line HS27 = test: WST cell viability in normal cell line (Example 3); assay type: cell-based, human; conditions: HS27, 3 days, FIG. 1A
Experimental: The cell lines used in this example are as follows: normal cell line HS27, and paclitaxel-resistant cancer cell lines Skmel28, A375, and B16F10. Each cell line was cultured in DMEM medium containing 10% fetal bovine serum and seeded at a density of 3,000 cells/well in a 96-well plate, followed by incubation at 37° C. and 5% CO2 for 24 hours. RP116 was serially diluted at concentrations ranging from 0.008 to 1,000 MOI (Multiplicity of Infection) and treated to the prepared cells, and further incubated for three days at 37° C. and 5% CO2. The number of surviving cells was measured using a WST kit (DoGen, Seoul, South Korea, Cat No: EZ-3000) according to the manufacturer's instructions.

CC(=O)O[C@H]1C(=O)[C@@]2(C)[C@H]([C@H](OC(=O)c3ccccc3)[C@]3(O)C[C@H](OC(=O)[C@H](O)[C@@H](NC(=O)c4ccccc4)c4ccccc4)C(C)=C1C3(C)C)[C@]1(OC(C)=O)CO[C@@H]1C[C@@H]2O [paclitaxel]
cell viability of paclitaxel-resistant cancer cells vs control group [1]: no significant difference in cell viability compared to the control group | cell viability of normal cell line vs control group (normal cell line HS27): cell viability decreased in a concentration-dependent manner
